# Tested on: IL-1β production in PMA-differentiated THP-1 cells
# Assay: IL-1β production in PMA-differentiated THP-1 cells stimulated with gramicidin (hTHP-1 assay, 2% fetal bovine serum; Procedures 1-3)
# Type: cell-based, human
# Conditions: Homo sapiens, THP-1, Table B3; hTHP-1 assay containing 2% fetal bovine serum, gramicidin stimulation, IL-1β readout; read-out: hTHP-1 IC50
# In short: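 IL-1β released into supernatants was read by HTRF after 2 h gramicidin (5 μM) challenge. Before challenge, compounds (3-fold dilutions, top 100 μM, 0.37% DMSO) were given 1 h on THP-1 cells differentiated with PMA (20 ng/ml, 16-18 h) and held in 2% FBS medium.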
row,IC50 [µM],SMILES
1,1 to 5,"CN1CCCC(c2ccc(S(N)(=O)=NC(=O)Nc3c4c(cc5c3CC5)CCC4)c(F)c2)C1 (single isomer, unassigned) [Example 862, (R, R) or (S, R)-2-fluoro-4-(1-methylpiperidin-3-yl)-N′-((2,4,5,6-tetrahydro-1H-cyclobuta[f]inden-3-yl)carbamoyl)benzenesulfonimidamide]"

# Same assay, conditions: Table B3; hTHP-1 assay containing 2% fetal bovine serum, gramicidin stimulation, IL-1β readout; read-out: hTHP-1 IC50
row,SMILES,IC50 [µM]
1,"CC(NC1CCC1)c1ccc(S(N)(=O)=NC(=O)Nc2c3c(cc4c2CC4)CCC3)c(F)c1 (single isomer, unassigned) [Example 848, (S, R) or (R, R) -4-(1-(cyclobutylamino)ethyl)-2-fluoro-N′-((2,4,5,6-tetrahydro-1H-cyclobula[f]inden-3-yl)carbamoyl)benzenesulfonimidamide]",0.2 to 1
2,"CC(NC1CCC1)c1ccc(S(N)(=O)=NC(=O)Nc2c3c(cc4c2CC4)CCC3)c(F)c1 (single isomer, unassigned) [Example 850, (R, S) or (S, S) -4-(1-(cyclobutylamino)ethyl)-2-fluoro-N′-((2,4,5,6-tetrahydro-1H-cyclobuta[f]inden-3-yl)carbamoyl)benzenesulfonimidamide]",5 to 30
3,"COC1CCc2csc(S(N)(=O)=NC(=O)Nc3c4c(cc5c3CCC5)CCC4)c2C1 (single isomer, unassigned) [Example 855, (R, S) or (S, S)-N′-((1,2,3,5,6,7-hexahydro-s-indacen-4-yl)carbamoyl)-6-methoxy-4,5,6,7-tetrahydrobenzo[c]thiophene-1-sulfonimidamide]",> 30
4,"COC1CCc2csc(S(N)(=O)=NC(=O)Nc3c4c(cc5c3CCC5)CCC4)c2C1 (single isomer, unassigned) [Example 857, (R, R) or (S, R)-N′-((1,2,3,5,6,7-hexahydro-s-indacen-4-yl)carbamoyl)-6-methoxy-4,5,6,7-tetrahydrobenzo[c]thiophene-1-sulfonimidamide]",1 to 5
5,"CN1CCCC(c2ccc(S(N)(=O)=NC(=O)Nc3c4c(cc5c3CC5)CCC4)c(F)c2)C1 (single isomer, unassigned) [Example 860, (R, S) or (S, S)-2-fluoro-4-(1-methylpiperidin-3-yl)-N′-((2,4,5,6-tetrahydro-1H-cyclobuta[f]inden-3-yl)carbamoyl)benzenesulfonimidamide]",> 30
6,"NS(=O)(=NC(=O)Nc1c2c(cc3c1CCC3)CCC2)c1ccc(C2CCN2)cc1 (single isomer, unassigned) [Example 864, (R, S) or (S, S)-4-(azetidin-2-yl)-N′-((1,2,3,5,6,7-hexahydro-5-indacen-4-yl)carbamoyl)benzenesulfonimidamide]",5 to 30
7,"NS(=O)(=NC(=O)Nc1c2c(cc3c1CCC3)CCC2)c1ccc(C2CCN2)cc1 (single isomer, unassigned) [Example 865, (S, S) or (R, S)-4-(azetidin-2-yl)-N′-((1,2,3,5,6,7-hexahydro-s-indacen-4-yl)carbamoyl)benzenesulfonimidamide]",5 to 30

# Results, then the compound that gave them:
row,IC50 [µM],SMILES
1,0.2 to 1,"CC(NC1CCC1)c1ccc(S(N)(=O)=NC(=O)Nc2c3c(cc4c2CC4)CCC3)c(F)c1 (single isomer, unassigned) [Example 845, (R/S, R)-4-(1-(cyclobutylamino)ethyl)-2-fluoro-N′-((2,4,5,6-tetrahydro-1H-cyclobuta[f]inden-3-yl)carbamoyl)benzenesulfonimidamide]"
2,0.2 to 1,"CC(NC1CCC1)c1ccc(S(N)(=O)=NC(=O)Nc2c3c(cc4c2CC4)CCC3)c(F)c1 (single isomer, unassigned) [Example 847, (R, R) or (S, R) -4-(1-(cyclobutylamino)ethyl)-2-fluoro-N′-((2,4,5,6-tetrahydro-1H-cyclobuta[f]inden-3-yl)carbamoyl)benzenesulfonimidamide]"
3,5 to 30,"CC(NC1CCC1)c1ccc(S(N)(=O)=NC(=O)Nc2c3c(cc4c2CC4)CCC3)c(F)c1 (single isomer, unassigned) [Example 849, (S, S) or (R, S) -4-(1-(cyclobutylamino)ethyl)-2-fluoro-N′-((2,4,5,6-tetrahydro-1H-cyclobuta[f]inden-3-yl)carbamoyl)benzenesulfonimidamide]"
4,0.2 to 1,"COC1CCc2c(csc2S(N)(=O)=NC(=O)Nc2c3c(cc4c2CCC4)CCC3)C1 (single isomer, unassigned) [Example 851, (R, R) or (S, R)-N′-((1,2,3,5,6,7-hexahydro-s-indacen-4-yl)carbamoyl)-5-methoxy-4,5,6,7-tetrahydrobenzo[c]thiophene-1-sulfonimidamide]"
5,1 to 5,"COC1CCc2c(csc2S(N)(=O)=NC(=O)Nc2c3c(cc4c2CCC4)CCC3)C1 (single isomer, unassigned) [Example 852, (S, R) or (R, R)-N′-((1,2,3,5,6,7-hexahydro-s-indacen-4-yl)carbamoyl)-5-methoxy-4,5,6,7-tetrahydrobenzo[c]thiophene-1-sulfonimidamide]"
6,> 30,"COC1CCc2c(csc2S(N)(=O)=NC(=O)Nc2c3c(cc4c2CCC4)CCC3)C1 (single isomer, unassigned) [Example 853, (R, S) or (S, S)-N′-((1,2,3,5,6,7-hexahydro-s-indacen-4-yl)carbamoyl)-5-methoxy-4,5,6,7-tetrahydrobenzo[c]thiophene-1-sulfonimidamide]"
7,5 to 30,"COC1CCc2c(csc2S(N)(=O)=NC(=O)Nc2c3c(cc4c2CCC4)CCC3)C1 (single isomer, unassigned) [Example 854, (S, S) or (R, S)-N′-((1,2,3,5,6,7-hexahydro-s-indacen-4-yl)carbamoyl)-5-methoxy-4,5,6,7-tetrahydrobenzo[c]thiophene-1-sulfonimidamide]"
8,> 30,"COC1CCc2csc(S(N)(=O)=NC(=O)Nc3c4c(cc5c3CCC5)CCC4)c2C1 (single isomer, unassigned) [Example 856, (S, S) or (R, S)-N′-((1,2,3,5,6,7-hexahydro-s-indacen-4-yl)carbamoyl)-6-methoxy-4,5,6,7-tetrahydrobenzo[c]thiophene-1-sulfonimidamide]"
9,5 to 30,"COC1CCc2csc(S(N)(=O)=NC(=O)Nc3c4c(cc5c3CCC5)CCC4)c2C1 (single isomer, unassigned) [Example 858, (S, R) or (R, R)-N′-((1,2,3,5,6,7-hexahydro-s-indacen-4-yl)carbamoyl)-6-methoxy-4,5,6,7-tetrahydrobenzo[c]thiophene-1-sulfonimidamide]"
10,1 to 5,"CN1CCCC(c2ccc(S(N)(=O)=NC(=O)Nc3c4c(cc5c3CC5)CCC4)c(F)c2)C1 (single isomer, unassigned) [Example 859, (S, R) or (R, R)-2-fluoro-4-(1-methylpiperidin-3-yl)-N′-((2,4,5,6-tetrahydro-1H-cyclobuta[f]inden-3-yl)carbamoyl)benzenesulfonimidamide]"
11,> 30,"CN1CCCC(c2ccc(S(N)(=O)=NC(=O)Nc3c4c(cc5c3CC5)CCC4)c(F)c2)C1 (single isomer, unassigned) [Example 861, (S, S) or (R, S)-2-fluoro-4-(1-methylpiperidin-3-yl)-N′-((2,4,5,6-tetrahydro-1H-cyclobuta[f]inden-3-yl)carbamoyl)benzenesulfonimidamide]"

# Source: patent publication US20230051589A1, “COMPOUNDS AND COMPOSITIONS FOR TREATING CONDITIONS ASSOCIATED WITH NLRP ACTIVITY” (Novartis AG, priority 2018, published 2023)
